The target of assay [1] is T1, angiotensin converting enzyme (Rattus norvegicus, UniProt P47820).
T1 construct: rat plasma containing angiotensinogen, renin and converting enzyme in physiological amounts; from tissue; host or cells: rat plasma
T1 sequence (P47820 36-1238 limits assumed): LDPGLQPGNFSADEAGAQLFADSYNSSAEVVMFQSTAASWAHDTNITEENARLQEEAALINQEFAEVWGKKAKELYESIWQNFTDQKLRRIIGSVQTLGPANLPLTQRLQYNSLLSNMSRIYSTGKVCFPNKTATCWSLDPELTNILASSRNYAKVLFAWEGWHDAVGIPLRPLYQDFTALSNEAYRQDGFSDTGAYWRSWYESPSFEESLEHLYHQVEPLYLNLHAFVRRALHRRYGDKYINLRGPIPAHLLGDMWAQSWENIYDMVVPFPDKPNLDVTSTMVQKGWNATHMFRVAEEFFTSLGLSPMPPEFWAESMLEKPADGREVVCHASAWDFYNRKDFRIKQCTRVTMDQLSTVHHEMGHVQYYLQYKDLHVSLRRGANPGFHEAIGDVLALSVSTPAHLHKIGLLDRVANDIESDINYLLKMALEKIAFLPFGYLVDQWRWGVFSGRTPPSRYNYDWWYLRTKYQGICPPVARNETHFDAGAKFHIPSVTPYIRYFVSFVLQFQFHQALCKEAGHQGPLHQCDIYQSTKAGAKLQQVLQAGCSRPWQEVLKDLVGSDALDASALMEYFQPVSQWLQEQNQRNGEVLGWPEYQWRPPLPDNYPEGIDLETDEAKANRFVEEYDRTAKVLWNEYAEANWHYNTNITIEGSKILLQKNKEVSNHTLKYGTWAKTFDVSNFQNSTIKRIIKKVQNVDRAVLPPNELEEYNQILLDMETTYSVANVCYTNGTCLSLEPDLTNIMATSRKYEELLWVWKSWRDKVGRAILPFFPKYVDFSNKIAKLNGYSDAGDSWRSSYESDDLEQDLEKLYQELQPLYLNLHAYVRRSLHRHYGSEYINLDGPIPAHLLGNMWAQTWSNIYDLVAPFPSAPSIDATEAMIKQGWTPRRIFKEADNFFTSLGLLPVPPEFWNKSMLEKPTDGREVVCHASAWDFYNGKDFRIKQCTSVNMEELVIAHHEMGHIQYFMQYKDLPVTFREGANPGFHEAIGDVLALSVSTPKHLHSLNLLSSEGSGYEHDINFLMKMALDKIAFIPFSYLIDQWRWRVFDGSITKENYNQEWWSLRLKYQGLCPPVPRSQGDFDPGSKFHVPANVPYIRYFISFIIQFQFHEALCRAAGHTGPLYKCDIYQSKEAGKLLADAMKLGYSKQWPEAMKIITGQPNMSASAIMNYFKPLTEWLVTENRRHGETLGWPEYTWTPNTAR
The experiment in a line: in vitro radioimmunoassay of angiotensin-II generation in rat plasma (converting enzyme inhibition). The class given is biochemical. As to conditions: 37° C., 30 minutes, angiotensin-II antibody trapping, read-out: IC50 (concentration at which a 50% inhibition of formation of angiotensin-II with respect to the control occurs) (converted).
Description: The in vitro activity was determined by a radioimmuno-assay carried out using the methodology illustrated by K. Poulsen in J. Lab. […] More particularly, the in vitro activity was quantitatively evaluated by following the procedure described below:
50 μl of rat plasma containing angiotensinogen, renin and converting enzyme in physiological amounts, but deprived of endogenous angiotensin-I and angiotensin-II, and 10 μl of angiotensin-II antibody in dilution (1:120) were incubated in a tube at 37° C. for 30 minutes.
During this enzymatic incubation in the absence of converting enzyme inhibitors, angiotensin-II which forms is then transformed into angiotensin-II by the action of converting enzyme and the angiotensin-II antibody which is present in the incubate, then captures and traps it, thus preserving angiotensin-II from the degrading action of plasmatic angiotensinases. Incubation was terminated by placing the tube at 0° C. and the amount of angiotensin-II formed and captured by the antibody was measured by radioimmunoassay (see K. Poulsen and J. Jorgensen J. Clin. Endocrinol. Metab. 39, 816-825 (1974). […]
As said above, the amount of captured angiotensin-II, was determined by a radioimmunological assay. […] After centrifugation at 3000×g for 30 minutes the supernatant which contains the antibody-bound angiotensin-II, was decanted in counting tubes and each sample was then counted.
For calculation of generated angiotensin-II from the amount of antibody-bound labeled angiotensin-II, an angiotensin-II standard curve was constructed using 50 μg of standard angiotensin-II (containing zero to 7.5 pg of angiotensin-II) and 10 μl of angiotensin-II antibody in dilution (1:120). […] By plotting the amounts of antibody-bound labeled angiotensin-II versus the known amounts of angiotensin-II initially present, a standard curve can be constructed, which allow a direct correlation between the amount of antibody-bound labeled angiotensin-II determined in each test and the amount of generated angiotensin-II.

The target of assay [2] is T2, angiotensin converting enzyme (Rattus norvegicus, UniProt P47820).
T2 construct: confirmed also in vivo by means of an experiment performed on normotensive rats; from tissue; host or cells: anesthetized normotensive rats (whole animal)
T2 sequence (P47820 36-1313): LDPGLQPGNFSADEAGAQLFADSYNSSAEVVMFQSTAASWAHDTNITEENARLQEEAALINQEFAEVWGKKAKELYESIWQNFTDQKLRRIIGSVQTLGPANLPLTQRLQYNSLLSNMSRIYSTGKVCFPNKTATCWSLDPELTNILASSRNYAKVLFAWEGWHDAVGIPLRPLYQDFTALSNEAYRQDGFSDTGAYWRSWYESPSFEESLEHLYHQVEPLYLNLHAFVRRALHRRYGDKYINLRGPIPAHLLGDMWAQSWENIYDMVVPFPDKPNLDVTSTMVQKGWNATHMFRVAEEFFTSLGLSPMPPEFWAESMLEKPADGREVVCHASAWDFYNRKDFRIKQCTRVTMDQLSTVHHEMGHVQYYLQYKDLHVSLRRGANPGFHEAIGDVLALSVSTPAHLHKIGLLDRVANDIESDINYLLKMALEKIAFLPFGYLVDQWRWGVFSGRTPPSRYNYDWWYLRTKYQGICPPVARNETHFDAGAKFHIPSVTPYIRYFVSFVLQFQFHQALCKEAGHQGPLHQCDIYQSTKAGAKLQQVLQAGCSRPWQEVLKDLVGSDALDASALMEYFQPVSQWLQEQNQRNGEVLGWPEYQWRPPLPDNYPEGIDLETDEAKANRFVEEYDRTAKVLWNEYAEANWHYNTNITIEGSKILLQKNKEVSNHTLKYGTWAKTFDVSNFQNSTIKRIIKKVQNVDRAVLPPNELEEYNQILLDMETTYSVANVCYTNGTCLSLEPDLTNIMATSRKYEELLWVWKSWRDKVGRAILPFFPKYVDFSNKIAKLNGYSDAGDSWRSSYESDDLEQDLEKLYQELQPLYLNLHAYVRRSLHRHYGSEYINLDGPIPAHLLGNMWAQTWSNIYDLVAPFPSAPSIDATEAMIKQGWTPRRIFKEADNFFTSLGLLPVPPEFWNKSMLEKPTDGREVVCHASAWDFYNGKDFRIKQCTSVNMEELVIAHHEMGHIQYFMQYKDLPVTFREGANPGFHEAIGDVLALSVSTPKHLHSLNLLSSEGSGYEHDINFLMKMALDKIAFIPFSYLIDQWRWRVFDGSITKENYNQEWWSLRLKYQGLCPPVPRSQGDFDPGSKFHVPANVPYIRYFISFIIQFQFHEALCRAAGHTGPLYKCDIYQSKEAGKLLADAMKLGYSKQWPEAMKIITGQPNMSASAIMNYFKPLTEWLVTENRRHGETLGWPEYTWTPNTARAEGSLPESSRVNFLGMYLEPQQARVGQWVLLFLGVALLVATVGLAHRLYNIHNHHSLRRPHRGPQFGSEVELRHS
The experiment in a line: inhibition of the pressure increase induced by angiotensin-I in anesthetized normotensive rats. The class given is in vivo. As to conditions: normotensive rats anesthetized with nembuthal, angiotensin-I 0.1 μg/Kg, generally 15 minutes after test compound. As for the experimental part:
The experiment was carried out simultaneously with the above one and under the same conditions.
The basal pressure value for each rat was recorded, then doses of 0.1 μg/Kg of body weight of angiotensin-I were injected through the jugular catheter. […] From these values and the basal ones the pressure increase induced by angiotensin-I in each rat was calculated.
The percentages of inhibition of the pressure increase induced by angiotensin-I by different doses of test compounds were easily calculated and for each dose a single value, averaged on the three animals of the group was considered. By plotting the concentrations of test compound on a logarithmic scale versus the percent inhibitory effects, a linear correlation was established which allowed the calculation of the ED50, i.e. the dose of test compound which inhibits by 50% the pressure increase induced by angiotensin-I.

For `O=C(SC1CCCC1C(=O)N1CCC[C@H]1C(=O)O)c1ccccc1` (single isomer, unassigned) [Example 5B, 1-[(2-benzoylthiocyclopentyl)carbonyl]-L-proline], the IC50 in assay [1] was 0.662 µM.

With `O=C(O)[C@@H]1CCCN1C(=O)C1CCCC1S` (single isomer, unassigned) [Example 6A, 1-[(2-mercaptocyclopentyl)carbonyl]-L-proline], the IC50 in assay [1] was 0.863 µM.

For orientation: ED50 means the dose at which the effect has come halfway, by size or by number of responders. On to `O=C(O)[C@@H]1CCCN1C(=O)C1CCCC1S` (stereo partly drawn) [Example 2, 1-[(2-mercaptocyclopentyl)carbonyl]-L-proline], for which the IC50 in assay [1] was 2.34 µM. In addition, the ED50 in assay [2] (rat, iv, 0.25 h, read-out: ED50 (dose which inhibits by 50% the pressure increase induced by angiotensin-I)) was 2.3 mg/kg.

Take `O=C(O)[C@@H]1CCCN1C(=O)C1CCCC1S` (stereo partly drawn) [Example 6B, 1-[(2-mercaptocyclopentyl)carbonyl]-L-proline]: the “ED50 (dose which inhibits by 50% the pressure increase induced by angiotensin-I)” value in assay [2] (intravenous, 15 min) was 1.8 mg/kg.
